Experimental data: patent EP1986670B1, “INTESTINAL ALPHA-GLUCOSIDASE INHIBITORS AND A PROCESS FOR THE ISOLATION AND USE THEREOF” (Council of Scientific and Industrial Research, priority 2006, dated 2007)

Biological target: intestinal α-glucosidase
Experiment: Assay for intestinal α-glucosidase inhibition (p-nitrophenyl α-D-glucopyranoside substrate, read at 405 nm)
Format: biochemical, Rat
Settings: for Intestinal α-glucosidase inhibitory activity IC50 VALUES: crude enzyme from rat intestinal acetone powder, substrate p-nitrophenyl α-D-glucopyranoside, phosphate buffer pH6.8, triplicate
Protocol: Example 2: Assay for intestinal α-glucosidase inhibition:- Rat intestinal acetone powder (sigma chemicals, USA) in normal saline in ration of 100:1 (w/v) was sonicated properly. Supernatant obtained after centrifugation at 3000rpm x 30 min at 25°C was treated as crude source of mammalian intestinal α-glucosidase 10 µL of test samples prepared from either extracts or the molecules (5mg/ml in DMSO) were incubated in 100µL of 100 mM phosphate buffer (pH6.8) with 50 µL of crude enzyme for 5 minutes. Thereafter 50 µL of substrate (5mM, p-nitrophenyl α-D-glucopyranoside prepared in the buffer)was added. After 5 minutes incubation, released p-nitro phenol was read at 405nm spectrophotometrically. For control and blank readings at the place of test samples 10 µL of DMSO and at the place of substrate 50 µL of buffer was added: In order to compensate interference from colored compounds there individual blanks were prepared and spectophotpmetric reading were evaluated accordingly the percent inhibition was calculated as follows:- […] [formula] and 50% inhibitory concentration(IC50)for test samples were calculated by applying suitable regression analysis from the data obtain from serial dilution of the test samples concentrations. Each test sample and other control samples were run in triplicate.

Row | SMILES | in vitro α-glucosidase inhibitory activity IC50 | Intestinal α-glucosidase inhibitory activity IC50 VALUES
1 | O=c1cc(-c2ccccc2)oc2cc(O)cc(O)c12 [Chrysin, 5,7-dihydroxy-2-phenyl-chromen-4-one] | 57.59 µg/mL | 57.59 µg/mL
2 | COc1cc(O)c2c(=O)cc(-c3ccccc3)oc2c1 [Methoxy chrysin, 5-hydroxy-7-methoxy-2-phenyl-chromen-4-one] | – | 95.39 µg/mL
3 | COC(=O)[C@H]1O[C@@H](Oc2cc3oc(-c4ccccc4)cc(=O)c3c(O)c2OC)[C@H](O)[C@@H](O)[C@@H]1O [Oroxyloside methyl ester] | 97.31 µg/mL | 97.31 µg/mL
4 | O=c1cc(-c2ccccc2)oc2cc(O)c(O)c(O)c12 [Baicalein, 5,6,7-trihydroxy-2-phenyl-chromen-4-one] | 38.71 µg/mL | 38.71 µg/mL
5 | COc1c(O)cc2oc(-c3ccccc3)cc(=O)c2c1O [Oroxylin-A, 5,7-Dihydroxy-6-methoxy-2-phenyl-chromen-4-one] | 25.90 µg/mL | 25.90 µg/mL
